Data published in patent US20230279002A1, “Polymorphs of Crystalline Forms of 3,10-dimethoxy-5,8,13,13a-tetrahydro-6H-isoquinolino[3,2-a]isoquinolin-9-yl 3-fluorobenzenesulfonate and Salts Thereof” (CVI Pharmaceuticals Limited, priority 2020, published 2023).
Where two headings read alike, the source gives them in different places.

How the values were obtained:
Assay type in all cases: physicochemical
[1] = DVS (Dynamic Vapor Sorption) moisture sorption/desorption, hygroscopicity classification
Protocol: DVS (Dynamic Vapor Sorption): Around 10-20 mg of samples were used to test its moisture sorption/desorption profiles at 25° C. under 0%˜95%˜0% relative humidity (RH) cycle using dm/dt: 0.01%/min equilibrium and a measurement step of 5% RH.
Hygroscopicity Classification: Typical %-moisture gain as a function of increased RH was determined by DVS. Samples went through a dynamic test isothermally at 25° C. The test was divided into 2 processes, one was absorption process, the other was desorption process. RH ranged from 0% to 95% with 5% RH for each step, and when dm/dt<=0.01%, it was assumed the water sorption/desorption equilibrium is reached.

[2] = Solubility in SGF, FaSSIF, FeSSIF, 0.1M HCl, pH 4.5 and pH 6.8 aqueous at 25° C. (HPLC); conditions: for solubility: 25 °C, thermodynamic from solid, read-out: Solubility conc.(mg/ml); for Final pH: solubility test
Protocol: Solubility: Excess drug substance was equilibrated with SGF (Simulated Gastric Fluid), FaSSIF (Simulated Small Intestinal Fluid under Fasted state), FeSSIF (Simulated Small Intestinal Fluid under Fed state), 0.1M HCl, pH 4.5 aqueous, and pH 6.8 aqueous at 25° C. After stirring for 20˜24 h, each sample was filtered, diluted appropriately and analyzed by HPLC. The experiment was terminated once a solubility target of 5 mg/mL was reached.

[3] = Solid stability at 40° C./0% RH (closed) and 40° C./75% RH (open), HPLC; conditions: for 0 day % remaining / 7 day % remaining / 21 day % remaining: solid
Procedure, shortened: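 Solid compound (5 mg) stored in the dark at 40 °C/0% RH in closed vials and at 40 °C/75% RH open. Samples analysed by HPLC at day 0, 5 and 10, or at days 0, 7 and 21, depending on the study.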

[4] = Solution stability in 0.1 N HCl, pH 4.5 buffer and pH 6.8 buffer at 25° C. and 37° C., HPLC; conditions: for Remaining %: 50 μg/mL, 40% MeOH; for Solution stability: 0.1 N HCl, pH 4.5 buffer and pH 6.8 buffer
Protocol: Solution stability: A stock solution of compound (1.0 mg/mL) in MeOH was diluted with 0.1 N HCl, pH 4.5 buffer (acetate) and pH 6.8 buffer to reach constant ionic strength of 0.15 M and the same final concentration (50 μg/mL, 40% MeOH).
A stock solution of 1b and 3b (1.0 mg/mL) in MeOH was diluted with pH 6.8 buffer to reach constant ionic strength of 0.15M and the same final concentration (25 μg/mL, 40% […]).
The solutions were stored at 25° C. and 37° C.

[5] = TGA (Thermal Gravimetric Analysis) weight loss; conditions: DSC and TGA
Protocol: TGA (Thermal Gravimetric Analysis): Samples of compounds (4˜6 mg) were weighed into the pan, and heated under nitrogen purge using a ramp rate of 20° C./min over the range of 30° C.˜350° C.

SMILES: COc1ccc2c(c1)CCN1Cc3c(ccc(OC)c3OS(=O)(=O)c3cccc(F)c3)C[C@@H]21 [Compound 2b]
- Hygroscopicity classification by DVS ([1]; 25 °C): not hygroscopic
- Change In Mass (%) - ref, Desorption ([1]; Cycle 1, target RH 0.0%): −0.0081%
- Change In Mass (%) - ref, Sorption ([1]; Cycle 1, target RH 0.0%): 0.0011%
- Change In Mass (%) - ref, Desorption ([1]; Cycle 1, target RH 5.0%): −0.0035%
- Change In Mass (%) - ref, Hysteresis ([1]; Cycle 1, target RH 5.0%): −0.0042%
- Change In Mass (%) - ref, Sorption ([1]; Cycle 1, target RH 5.0%): 0.0007%
- Change In Mass (%) - ref, Desorption ([1]; Cycle 1, target RH 10.0%): 0.0000%
- Change In Mass (%) - ref, Hysteresis ([1]; Cycle 1, target RH 10.0%): −0.0032%
- Change In Mass (%) - ref, Sorption ([1]; Cycle 1, target RH 10.0%): 0.0032%
- Change In Mass (%) - ref, Desorption ([1]; Cycle 1, target RH 15.0%): 0.0011%
- Change In Mass (%) - ref, Hysteresis ([1]; Cycle 1, target RH 15.0%): −0.0033%
- Change In Mass (%) - ref, Sorption ([1]; Cycle 1, target RH 15.0%): 0.0044%
- Change In Mass (%) - ref, Desorption ([1]; Cycle 1, target RH 20.0%): 0.0044%
- Change In Mass (%) - ref, Hysteresis ([1]; Cycle 1, target RH 20.0%): −0.0037%
- Change In Mass (%) - ref, Sorption ([1]; Cycle 1, target RH 20.0%): 0.0081%
- Change In Mass (%) - ref, Desorption ([1]; Cycle 1, target RH 25.0%): 0.0062%
- Change In Mass (%) - ref, Hysteresis ([1]; Cycle 1, target RH 25.0%): −0.0037%
- Change In Mass (%) - ref, Sorption ([1]; Cycle 1, target RH 25.0%): 0.0099%
- Change In Mass (%) - ref, Desorption ([1]; Cycle 1, target RH 30.0%): 0.0081%
- Change In Mass (%) - ref, Hysteresis ([1]; Cycle 1, target RH 30.0%): −0.0037%
- Change In Mass (%) - ref, Sorption ([1]; Cycle 1, target RH 30.0%): 0.0118%
- Change In Mass (%) - ref, Desorption ([1]; Cycle 1, target RH 35.0%): 0.0100%
- Change In Mass (%) - ref, Hysteresis ([1]; Cycle 1, target RH 35.0%): −0.0033%
- Change In Mass (%) - ref, Sorption ([1]; Cycle 1, target RH 35.0%): 0.0134%
- Change In Mass (%) - ref, Desorption ([1]; Cycle 1, target RH 40.0%): 0.0123%
- Change In Mass (%) - ref, Hysteresis ([1]; Cycle 1, target RH 40.0%): −0.0026%
- Change In Mass (%) - ref, Sorption ([1]; Cycle 1, target RH 40.0%): 0.0150%
- Change In Mass (%) - ref, Desorption ([1]; Cycle 1, target RH 45.0%): 0.0185%
- Change In Mass (%) - ref, Hysteresis ([1]; Cycle 1, target RH 45.0%): 0.0012%
- Change In Mass (%) - ref, Sorption ([1]; Cycle 1, target RH 45.0%): 0.0173%
- Change In Mass (%) - ref, Desorption ([1]; Cycle 1, target RH 50.0%): 0.0204%
- Change In Mass (%) - ref, Hysteresis ([1]; Cycle 1, target RH 50.0%): 0.0035%
- Change In Mass (%) - ref, Sorption ([1]; Cycle 1, target RH 50.0%): 0.0169%
- Change In Mass (%) - ref, Desorption ([1]; Cycle 1, target RH 55.0%): 0.0243%
- Change In Mass (%) - ref, Hysteresis ([1]; Cycle 1, target RH 55.0%): 0.0056%
- Change In Mass (%) - ref, Sorption ([1]; Cycle 1, target RH 55.0%): 0.0187%
- Change In Mass (%) - ref, Desorption ([1]; Cycle 1, target RH 60.0%): 0.0264%
- Change In Mass (%) - ref, Hysteresis ([1]; Cycle 1, target RH 60.0%): 0.0063%
- Change In Mass (%) - ref, Sorption ([1]; Cycle 1, target RH 60.0%): 0.0201%
- Change In Mass (%) - ref, Desorption ([1]; Cycle 1, target RH 65.0%): 0.0294%
- Change In Mass (%) - ref, Hysteresis ([1]; Cycle 1, target RH 65.0%): 0.0083%
- Change In Mass (%) - ref, Sorption ([1]; Cycle 1, target RH 65.0%): 0.0211%
- Change In Mass (%) - ref, Desorption ([1]; Cycle 1, target RH 70.0%): 0.0344%
- Change In Mass (%) - ref, Hysteresis ([1]; Cycle 1, target RH 70.0%): 0.0074%
- Change In Mass (%) - ref, Sorption ([1]; Cycle 1, target RH 70.0%): 0.0270%
- Change In Mass (%) - ref, Desorption ([1]; Cycle 1, target RH 75.0%): 0.0382%
- Change In Mass (%) - ref, Hysteresis ([1]; Cycle 1, target RH 75.0%): 0.0030%
- Change In Mass (%) - ref, Sorption ([1]; Cycle 1, target RH 75.0%): 0.0352%
- Change In Mass (%) - ref, Desorption ([1]; Cycle 1, target RH 80.0%): 0.0446%
- Change In Mass (%) - ref, Hysteresis ([1]; Cycle 1, target RH 80.0%): 0.0037%
- Change In Mass (%) - ref, Sorption ([1]; Cycle 1, target RH 80.0%): 0.0409%
- Change In Mass (%) - ref, Desorption ([1]; Cycle 1, target RH 85.0%): 0.0530%
- Change In Mass (%) - ref, Hysteresis ([1]; Cycle 1, target RH 85.0%): 0.0030%
- Change In Mass (%) - ref, Sorption ([1]; Cycle 1, target RH 85.0%): 0.0500%
- Change In Mass (%) - ref, Desorption ([1]; Cycle 1, target RH 90.0%): 0.0689%
- Change In Mass (%) - ref, Hysteresis ([1]; Cycle 1, target RH 90.0%): 0.0051%
- Change In Mass (%) - ref, Sorption ([1]; Cycle 1, target RH 90.0%): 0.0638%
- Change In Mass (%) - ref, Desorption ([1]; Cycle 1, target RH 95.0%): 0.0941%
- Change In Mass (%) - ref, Sorption ([1]; Cycle 1, target RH 95.0%): 0.0941%
- moisture picked up (DVS) ([1]; at 95% RH, 25 °C): ~0.1%
- solubility ([2]; 0.1 N HCl, simulated gastric fluid, 0.1N HCL, solubility of salts transformed to freebase): 0.206 mg/mL
- solubility ([2]; FaSSIF (Simulated Small Intestinal Fluid, fasted state), fassif, FaSSIF, solubility of salts transformed to freebase): 0.01 mg/mL
- solubility ([2]; FeSSIF (Simulated Small Intestinal Fluid, fed state), fessif, FeSSIF, solubility of salts transformed to freebase): 0.011 mg/mL
- Solubility conc.(mg/ml) ([2]; SGF, solubility of salts transformed to freebase): 0.147 mg/mL
- solubility ([2]; pH 4.5 acetate buffer (USP), pH 4.5, aqueous buffer, pH 4.5 Acetate Buffer (USP), solubility of salts transformed to freebase): 0.01 mg/mL
- solubility ([2]; pH 6.8 phosphate buffer (USP), pH 6.8, aqueous buffer, pH 6.8 Phosphate Buffer (USP), solubility of salts transformed to freebase): 0.008 mg/mL
- Final pH ([2]; 0.1N HCL): 1.59
- Final pH ([2]; FaSSIF): 6.23
- Final pH ([2]; FeSSIF): 4.93
- Final pH ([2]; SGF): 1.59
- Final pH ([2]; Water): 2.74
- Final pH ([2]; pH 4.5 Acetate Buffer (USP)): 4.44
- Final pH ([2]; pH 6.8 Phosphate Buffer (USP)): 6.67
- solubility ([2]; water, water, Water, solubility of salts transformed to freebase): 0.096 mg/mL
- Solid-state stability (HPLC) ([3]; 40° C./0% RH (closed) and 40° C./75% RH (open), dark, up to 3 weeks): substantially stable
- 0 day % remaining ([3]; 40° C. (0% RH, closed)): 100.0%
- 7 day % remaining ([3]; 40° C. (0% RH, closed)): 100.4%
- 21 day % remaining ([3]; 40° C. (0% RH, closed)): 100.0%
- 0 day % remaining ([3]; 40° C./75% RH (open)): 100.0%
- 7 day % remaining ([3]; 40° C./75% RH (open)): 100.3%
- 21 day % remaining ([3]; 40° C./75% RH (open)): 100.1%
- Solution stability, overall comparison of 1b, 2b and 3b ([4]; 25° C. and 37° C.): best solution stability behaviors
- Remaining % ([4]; 25° C., 0.1N HCL, 0 h): 100.00%
- Remaining % ([4]; 25° C., 0.1N HCL, 3 h): 100.07%
- Remaining % ([4]; 25° C., 0.1N HCL, 24 h): 100.37%
- Solution stability ([4]; 25° C., 24 h): stable
- Remaining % ([4]; 25° C., pH 4.5, 0 h): 100.00%
- Remaining % ([4]; 25° C., pH 4.5, 3 h): 99.80%
- Remaining % ([4]; 25° C., pH 4.5, 24 h): 99.52%
- Remaining % ([4]; 25° C., pH 6.8, 0 h): 100.00%
- Remaining % ([4]; 25° C., pH 6.8, 3 h): 99.52%
- Remaining % ([4]; 25° C., pH 6.8, 24 h): 98.01%
- Remaining % ([4]; 37° C., 0.1N HCL, 0 h): 100.00%
- Remaining % ([4]; 37° C., 0.1N HCL, 3 h): 100.34%
- Remaining % ([4]; 37° C., 0.1N HCL, 24 h): 100.95%
- Solution stability ([4]; 37° C., 24 h): stable
- Remaining % ([4]; 37° C., pH 4.5, 0 h): 100.00%
- Remaining % ([4]; 37° C., pH 4.5, 3 h): 100.00%
- Remaining % ([4]; 37° C., pH 4.5, 24 h): 99.45%
- Remaining % ([4]; 37° C., pH 6.8, 0 h): 100.00%
- Remaining % ([4]; 37° C., pH 6.8, 3 h): 100.28%
- Remaining % ([4]; 37° C., pH 6.8, 24 h): 99.86%
- Temperature until which there is no weight loss [5]: about 200 °C
